Experiments:
[1] = Binding affinity to human neutrophil MPO delta (1-95) measured for 5 mins by SPR assay
[2] = Metabolic stability in human liver microsomes assessed as compound remaining; assay type: ADME, Microsome
[3] = Metabolic stability in rat liver microsomes assessed as compound remaining; assay type: ADME, Microsome
[4] = Permeability of compound at pH 5.5 by PAMPA assay; assay type: ADME; conditions: read-out: permeability
[5] = Permeability of compound at pH 7.4 by PAMPA assay; assay type: ADME; conditions: read-out: permeability
Cytochrome P450 1A2 = biological target: T1, Cytochrome P450 1A2 (Homo sapiens, UniProt P05177); experiment: Inhibition of CYP1A2 (unknown origin); assay type: ADME
T1 sequence (P05177 whole entry): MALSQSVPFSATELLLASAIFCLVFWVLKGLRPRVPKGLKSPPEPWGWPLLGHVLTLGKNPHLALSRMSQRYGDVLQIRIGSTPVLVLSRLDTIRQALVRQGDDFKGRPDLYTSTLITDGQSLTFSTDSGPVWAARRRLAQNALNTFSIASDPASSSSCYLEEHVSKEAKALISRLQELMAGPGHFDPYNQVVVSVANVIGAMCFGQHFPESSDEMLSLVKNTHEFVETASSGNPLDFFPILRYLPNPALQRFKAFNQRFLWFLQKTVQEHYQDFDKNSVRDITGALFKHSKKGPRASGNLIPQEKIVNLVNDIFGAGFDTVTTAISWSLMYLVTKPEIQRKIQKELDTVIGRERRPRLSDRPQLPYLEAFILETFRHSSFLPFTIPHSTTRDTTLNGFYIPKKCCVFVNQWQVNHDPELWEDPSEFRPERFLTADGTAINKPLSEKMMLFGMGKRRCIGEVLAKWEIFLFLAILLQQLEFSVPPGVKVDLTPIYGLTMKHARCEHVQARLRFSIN

Cytochrome P450 2B6 = biological target: T2, Cytochrome P450 2B6 (Homo sapiens, UniProt P20813); experiment: Inhibition of CYP2B6 (unknown origin); assay type: ADME
T2 sequence (P20813 whole entry): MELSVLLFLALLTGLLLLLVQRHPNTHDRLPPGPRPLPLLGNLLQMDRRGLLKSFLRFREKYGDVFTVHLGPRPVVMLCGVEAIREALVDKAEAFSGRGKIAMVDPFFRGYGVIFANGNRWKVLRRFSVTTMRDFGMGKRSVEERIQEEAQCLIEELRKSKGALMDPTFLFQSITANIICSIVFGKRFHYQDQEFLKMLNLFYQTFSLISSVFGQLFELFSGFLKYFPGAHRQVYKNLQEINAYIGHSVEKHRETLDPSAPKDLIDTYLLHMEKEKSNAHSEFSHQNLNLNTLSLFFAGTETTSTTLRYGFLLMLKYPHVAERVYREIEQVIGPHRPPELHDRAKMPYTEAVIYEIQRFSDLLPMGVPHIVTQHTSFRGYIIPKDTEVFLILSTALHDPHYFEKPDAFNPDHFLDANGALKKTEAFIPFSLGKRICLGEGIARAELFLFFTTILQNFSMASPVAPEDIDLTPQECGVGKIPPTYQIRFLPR

Cytochrome P450 3A4 = Cytochrome P450 3A4 (Homo sapiens, UniProt P08684); experiment: Inhibition of CYP3A4 (unknown origin); assay type: ADME
Sequence of Cytochrome P450 3A4 (P08684 whole entry): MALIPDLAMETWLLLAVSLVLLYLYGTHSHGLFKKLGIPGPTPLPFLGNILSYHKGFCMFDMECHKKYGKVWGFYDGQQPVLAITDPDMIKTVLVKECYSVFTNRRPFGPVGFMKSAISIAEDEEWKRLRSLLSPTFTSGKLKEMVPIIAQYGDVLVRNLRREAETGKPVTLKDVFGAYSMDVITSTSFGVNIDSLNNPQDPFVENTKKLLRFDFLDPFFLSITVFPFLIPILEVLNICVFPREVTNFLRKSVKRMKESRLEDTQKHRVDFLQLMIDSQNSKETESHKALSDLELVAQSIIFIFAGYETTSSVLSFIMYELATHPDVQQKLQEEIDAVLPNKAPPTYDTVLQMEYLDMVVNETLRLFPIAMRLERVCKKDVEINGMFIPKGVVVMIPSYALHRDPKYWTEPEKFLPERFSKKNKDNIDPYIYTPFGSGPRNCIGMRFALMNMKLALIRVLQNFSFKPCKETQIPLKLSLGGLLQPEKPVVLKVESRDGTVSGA

[6] = AUCtot in CD-1 mouse at 3 mg/kg, po by LC/MS analysis; assay type: ADME, organism-based; set-up: time AUCmax, route oral, dose 3 mg/kg; conditions: in vivo
[7] = Half life in CD-1 mouse at 3 mg/kg, po by LC/MS analysis; assay type: ADME, organism-based; conditions: in vivo
Thyroid peroxidase = biological target: T3, Thyroid peroxidase (Homo sapiens, UniProt P07202); experiment: Inhibition of TPO (unknown origin) using 3-iodo tyrosine as substrate incubated for 10 mins
T3 sequence (P07202 whole entry): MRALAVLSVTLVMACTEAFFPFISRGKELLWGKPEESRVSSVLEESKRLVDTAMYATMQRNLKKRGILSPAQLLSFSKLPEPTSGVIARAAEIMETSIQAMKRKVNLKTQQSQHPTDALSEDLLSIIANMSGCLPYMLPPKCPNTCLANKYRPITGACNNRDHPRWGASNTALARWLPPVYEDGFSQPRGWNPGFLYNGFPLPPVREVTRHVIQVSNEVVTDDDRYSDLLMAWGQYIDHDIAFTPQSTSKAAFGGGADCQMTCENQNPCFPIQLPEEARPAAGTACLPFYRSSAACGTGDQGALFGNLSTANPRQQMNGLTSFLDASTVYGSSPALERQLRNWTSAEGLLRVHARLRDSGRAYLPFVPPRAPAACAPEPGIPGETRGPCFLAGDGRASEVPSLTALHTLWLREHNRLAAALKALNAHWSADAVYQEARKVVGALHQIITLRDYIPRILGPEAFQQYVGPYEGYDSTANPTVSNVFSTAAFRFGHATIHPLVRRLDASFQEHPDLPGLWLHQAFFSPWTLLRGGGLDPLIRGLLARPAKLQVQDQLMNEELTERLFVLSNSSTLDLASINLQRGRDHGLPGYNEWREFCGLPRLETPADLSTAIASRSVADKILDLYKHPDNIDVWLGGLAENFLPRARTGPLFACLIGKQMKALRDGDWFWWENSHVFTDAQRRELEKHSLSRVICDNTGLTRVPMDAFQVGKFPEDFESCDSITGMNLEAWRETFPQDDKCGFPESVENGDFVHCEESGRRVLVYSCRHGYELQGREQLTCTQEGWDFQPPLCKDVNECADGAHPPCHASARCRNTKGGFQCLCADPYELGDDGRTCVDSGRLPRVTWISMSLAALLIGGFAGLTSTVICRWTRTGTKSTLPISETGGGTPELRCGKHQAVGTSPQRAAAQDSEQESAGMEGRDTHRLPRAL

[8] = Plasma concentration in human MPO transgenic thioglycollate-induced peritonitis mouse model at 10 mg/kg, po measured after 6 hrs by LC/MS analysis; assay type: ADME, organism-based
[9] = Dissociation constant, pKa of the compound; assay type: physicochemical

Stabilty [2]: 98%
Stabilty [3]: 86%
Papp [4]: 42.7 ×10⁻⁶ cm/s
Papp [5]: 31.3 ×10⁻⁶ cm/s
IC50 (Cytochrome P450 1A2): > 10 µM
IC50 (Cytochrome P450 2B6): > 10 µM
IC50 (Cytochrome P450 3A4): 6.6 µM
AUC [6]: 47.9 µM·h
half-life [7]: 2 h
IC50 (Thyroid peroxidase): 2.2 µM
concentration at 6 h [8]: 7 µM
pKa [9]: 7.4
Compound: Nc1cc(Cc2ccccc2)c2nn[nH]c2n1
Kd [1]: 0.032 µM

From ChEMBL document CHEMBL4699540, “Discovery and structure activity relationships of 7-benzyl triazolopyridines as stable, selective, and reversible inhibitors of myeloperoxidase” (Bioorg Med Chem, 2020)
